Results: US20250326769A1, “HETEROAROMATIC MACROCYCLIC ETHER CHEMOTHERAPEUTIC AGENTS” (Nuvalent, Inc., priority 2022, published 2025)

Legend:
ALK I1171N/D1203N = ALK I1171N/D1203N (Homo sapiens (Human), UniProt Q9UM73, D1203N/I1171N); test: Biochemical kinase assay, ALK I1171N/D1203N; settings: apparent inhibitory constant, kinase domain, Morrison equation; read-out: ALK-I1171N-D1203N Ki^app
Method: (§1) First, 250 nL of compound dissolved in DMSO (100-fold of the desired concentration) was dispensed into a 384-well plate. A 12.5 μL substrate solution containing ATP (2 mM) and fluorogenic phosphorylation substrate AQT0101 ([…] for ALK and ROS, AssayQuant) or AQT0104 (26 μM for TRKB, AssayQuant) in buffer (50 mM HEPES pH 7.5, […], 0.5 mM EGTA, 10 mM MgCl2) was added and mixed thoroughly. Then, a 12.5 μL kinase solution containing ALK (1.5 nM, Carna, 08-518), ALK I1171N/D1203N (4 nM, SignalChem, custom-made), ROS1 (0.6 nM, Carma, 08-163), ROS1-G2032R (0.5 nM, SignalChem, R14-121BG), or TRKB-wt (1.5 nM, SignalChem, N17-11G) kinase domains in buffer ([…] pH 7.5, 0.01% Brij-[…], 0.4 mg/mL BSA, 0.5 mM EGTA, and 10 mM MgCl2) was added and mixed thoroughly. The plate was sealed and read by SpectraMax Paradigm at λ=485 nm every 2 minutes for 120 minutes at 30° C. Initial rates of reaction (v) were calculated from the change in fluorescence intensity over time during the initial, linear portion of the reaction. Finally, apparent inhibitory constants (Ki^app) were determined from regression of v and I (inhibitor concentration) to Morrison Equation (E=enzyme concentration): […]
(§2) Compound potency can be interpreted by binning Ki^app values against the targets: bin A for high potency, Ki^app<50 nM; bin B for medium potency, 50 nM≤Ki^app<500 nM; and bin C for low potency, Ki^app≥500 nM. […] “nd” means not determined.

TRKB-wt = TRKB-wt (Homo sapiens (Human), UniProt Q16620); test: Biochemical kinase assay, TRKB-wt; settings: apparent inhibitory constant, kinase domain, Morrison equation; read-out: TRKB-wt Ki^app
Method: as §1, §2

[1] = molecular target: Ba/F3 EML4-ALK v1 I1171N/D1203N (Homo sapiens (Human), UniProt Q9HC35+Q9UM73, D1203N/I1171N); test: Ba/F3 cell proliferation assay, EML4-ALK v1 I1171N/D1203N; assay type: cell-based; settings: for IC50: Ba/F3 stable cells, 72 hours, CellTiter-Glo; for ETV6-TRKB / EML4-ALK v1 I1171N/D1203N / Selectivity for Ba/F3 EML4-ALK v1 I1171N-D1203N IC50 over Ba/F3 ETV6-TRKB IC50: TRKB selectivity, ratio of Ba/F3 IC50 values; for Selectivity for Ba/F3 EML4-ALK v1 I1171N-D1203N IC50 over Ba/F3 ETV6-TRKB IC50: Table 6 bins
Outline: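 Viability read by CellTiter-Glo luminescence after 72 h exposure to a 3-fold compound dilution series, with IC50 from four-parameter logistic regression. Cells were Ba/F3 rendered IL-3-independent through retroviral expression of EML4-ALK v1 I1171N/D1203N, puromycin-selected.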

Ba/F3 ETV6-TRKB = Ba/F3 ETV6-TRKB (Homo sapiens, UniProt Q16620); test: Ba/F3 cell proliferation assay, ETV6-TRKB; assay type: cell-based; settings: Ba/F3 stable cells, 72 hours, CellTiter-Glo; read-out: ETV6-TRKB IC50
Outline: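 Growth inhibition after 72 h compound exposure (3-fold series) was measured by CellTiter-Glo in IL-3-independent Ba/F3 cells stably expressing ETV6-TRKB. A four-parameter logistic fit of percent inhibition versus concentration gave IC50.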

Ba/F3 EML4-ALK v1 I1171N = Ba/F3 EML4-ALK v1 I1171N (Homo sapiens (Human), UniProt Q9HC35+Q9UM73, I1171N); test: Ba/F3 cell proliferation assay, EML4-ALK v1 I1171N; assay type: cell-based; settings: for IC50: Ba/F3 stable cells, 72 hours, CellTiter-Glo; for ETV6-TRKB / EML4-ALK v1 I1171N: TRKB selectivity, ratio of Ba/F3 IC50 values
From the text: Genes encoding EML4-ALK v1 (variant 1), EML4-ALK v1 G1202R, EML4-ALK v1 I1171IN, EML4-ALK v1 D1203N, EML4-ALK v1 I1171N/D1203N, and ETV6-TRKB were synthesized at GeneRay, cloned into the retroviral construct pMSCV-puro (Biovector), and packaged into retroviral particles. The virus was used to infect Ba/F3 cells (RIKEN) at multiplicity of infection=1 for 1 day. Infected cells were rescued in media (RPMI-1640 with 10% fetal bovine serum and 1% streptomycin and penicillin) supplemented with mouse IL-3 (10 ng/mL) for 2 days, and stable cell lines were selected by IL-3 withdrawal and puromycin (0.8 μg/mL) for 7 days. Monoclones were selected by single-cell dilution in IL-3-free medium containing puromycin (0.8 μg/mL). Transformation of desired genes was confirmed by Sanger sequencing and western blot using the following antibodies: ALK (CST #3633) and pan-TRK (Abcam #76291).
Stable cells were plated in a 384-well plate. Test compounds were then added in a 3-fold dilution series and incubated for 72 hours. CellTiter-Glo reagent (Promega) was added. Luminescence was measured on a plate reader. Half-maximal inhibitory concentration (ICso) was calculated from percent inhibition and inhibitor concentration using four-parameter logistic regression. Compound potency can be interpreted by binning IC50 values: bin A for high potency, 0.1 nM IC50<50 nM; bin B for medium potency, 50 nM<IC50<500 nM; and bin C for low potency, IC50>500 nM. […] Exemplary data is given in Table 4 (nd is not determined).
Ba/F3 proliferation is driven by the transduced oncogenes in the same way that cancer cell proliferation in humans is driven by the expression of equivalent oncogenes.
TRKB selectivity was calculated by dividing a compound's TRKB potency by its primary target potency (e.g., ETV6-TRKB IC50/EML4-ALK v1 IC50). Compound selectivity can be interpreted by binning ratio values: bin A for very high selectivity, ratio≥30-fold; bin B for high selectivity, ratio≥10-fold but<30; bin C for moderate selectivity, ratio≥1 but<10; and bin D for low selectivity, ratio<1. […] (nd=not determined).

Sequence of Ba/F3 EML4-ALK v1 I1171N/D1203N (Q9UM73 other isoform, or with tags, fused parts or gaps I1171N/D1203N): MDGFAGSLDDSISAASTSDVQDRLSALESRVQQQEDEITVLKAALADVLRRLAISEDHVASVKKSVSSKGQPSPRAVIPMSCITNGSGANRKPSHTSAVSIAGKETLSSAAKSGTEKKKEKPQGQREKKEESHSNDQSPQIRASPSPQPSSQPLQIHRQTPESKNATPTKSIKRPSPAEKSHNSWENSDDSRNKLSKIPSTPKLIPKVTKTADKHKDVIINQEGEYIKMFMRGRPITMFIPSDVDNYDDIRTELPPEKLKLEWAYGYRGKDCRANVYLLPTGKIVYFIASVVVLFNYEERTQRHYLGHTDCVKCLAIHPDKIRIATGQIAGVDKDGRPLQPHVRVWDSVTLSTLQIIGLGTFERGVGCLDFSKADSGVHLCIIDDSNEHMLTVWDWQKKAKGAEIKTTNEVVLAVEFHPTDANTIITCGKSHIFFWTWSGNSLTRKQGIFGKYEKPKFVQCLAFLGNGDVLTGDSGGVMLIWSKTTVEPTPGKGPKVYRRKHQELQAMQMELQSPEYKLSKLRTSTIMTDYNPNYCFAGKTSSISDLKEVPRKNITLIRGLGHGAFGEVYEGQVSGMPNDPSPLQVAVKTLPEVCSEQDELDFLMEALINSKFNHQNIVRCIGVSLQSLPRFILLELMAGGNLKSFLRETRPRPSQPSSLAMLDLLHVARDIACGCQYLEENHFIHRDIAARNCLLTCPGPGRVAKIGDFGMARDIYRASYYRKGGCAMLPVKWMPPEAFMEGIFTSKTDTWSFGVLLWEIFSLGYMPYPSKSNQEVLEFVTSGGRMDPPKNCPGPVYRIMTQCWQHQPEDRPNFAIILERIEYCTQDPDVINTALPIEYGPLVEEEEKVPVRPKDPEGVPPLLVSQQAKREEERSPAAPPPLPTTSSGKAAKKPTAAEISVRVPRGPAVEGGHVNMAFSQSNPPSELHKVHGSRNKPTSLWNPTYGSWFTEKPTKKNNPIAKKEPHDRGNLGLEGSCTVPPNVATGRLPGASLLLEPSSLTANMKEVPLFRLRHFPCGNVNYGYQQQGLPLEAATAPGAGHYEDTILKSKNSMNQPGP
Sequence of Ba/F3 EML4-ALK v1 I1171N (Q9UM73 other isoform, or with tags, fused parts or gaps I1171N): as the sequence (Q9UM73 other isoform, or with tags, fused parts or gaps I1171N/D1203N) above, with N642D counted along it
Sequence of Ba/F3 ETV6-TRKB (Q16620 32-822 limits assumed, change not shown): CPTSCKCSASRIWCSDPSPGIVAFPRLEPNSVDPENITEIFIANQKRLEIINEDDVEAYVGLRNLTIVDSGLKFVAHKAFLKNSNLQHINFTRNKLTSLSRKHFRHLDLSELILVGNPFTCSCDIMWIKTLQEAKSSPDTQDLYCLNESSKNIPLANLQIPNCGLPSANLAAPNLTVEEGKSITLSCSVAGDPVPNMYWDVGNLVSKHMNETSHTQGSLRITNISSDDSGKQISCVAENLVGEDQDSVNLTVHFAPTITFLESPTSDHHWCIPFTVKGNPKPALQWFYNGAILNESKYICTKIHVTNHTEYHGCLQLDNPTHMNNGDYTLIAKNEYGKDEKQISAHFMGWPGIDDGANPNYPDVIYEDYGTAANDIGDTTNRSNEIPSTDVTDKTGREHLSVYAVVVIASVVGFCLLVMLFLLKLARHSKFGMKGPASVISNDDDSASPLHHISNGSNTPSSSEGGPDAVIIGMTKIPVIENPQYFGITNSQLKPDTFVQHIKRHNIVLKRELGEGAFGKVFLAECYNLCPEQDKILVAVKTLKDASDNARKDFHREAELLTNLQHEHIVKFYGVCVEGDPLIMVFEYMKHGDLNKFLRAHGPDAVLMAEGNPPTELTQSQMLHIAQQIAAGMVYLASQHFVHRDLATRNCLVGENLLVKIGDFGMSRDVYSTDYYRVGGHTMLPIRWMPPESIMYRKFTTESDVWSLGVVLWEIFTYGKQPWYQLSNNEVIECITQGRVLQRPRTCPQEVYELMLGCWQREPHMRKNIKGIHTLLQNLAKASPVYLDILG
Sequence of TRKB-wt (Q16620 538-807): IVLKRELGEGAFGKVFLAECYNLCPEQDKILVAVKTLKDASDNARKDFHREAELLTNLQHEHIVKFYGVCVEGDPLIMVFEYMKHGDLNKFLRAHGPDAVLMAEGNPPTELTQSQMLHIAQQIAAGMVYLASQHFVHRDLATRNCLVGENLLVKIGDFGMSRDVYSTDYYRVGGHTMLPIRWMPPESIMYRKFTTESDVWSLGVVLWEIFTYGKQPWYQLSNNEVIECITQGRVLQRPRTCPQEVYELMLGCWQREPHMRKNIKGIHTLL
Sequence of ALK I1171N/D1203N (Q9UM73 1116-1392 I1171N/D1203N): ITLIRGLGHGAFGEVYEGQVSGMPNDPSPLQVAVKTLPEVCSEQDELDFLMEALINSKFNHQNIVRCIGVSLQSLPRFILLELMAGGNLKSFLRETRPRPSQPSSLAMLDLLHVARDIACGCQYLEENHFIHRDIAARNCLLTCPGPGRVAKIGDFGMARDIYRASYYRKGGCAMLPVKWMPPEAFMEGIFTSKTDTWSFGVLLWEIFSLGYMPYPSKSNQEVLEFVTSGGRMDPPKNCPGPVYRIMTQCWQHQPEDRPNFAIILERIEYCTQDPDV

Ki (ALK I1171N/D1203N) | Ki (TRKB-wt) | IC50 [1] | IC50 (Ba/F3 ETV6-TRKB) | IC50 (Ba/F3 EML4-ALK v1 I1171N) | SMILES | ETV6-TRKB / EML4-ALK v1 I1171N/D1203N [1] | Selectivity for Ba/F3 EML4-ALK v1 I1171N-D1203N IC50 over Ba/F3 ETV6-TRKB IC50 [1] | ETV6-TRKB / EML4-ALK v1 I1171N (Ba/F3 EML4-ALK v1 I1171N)
50 to 500 nM | ≥ 500 nM | 50 to 500 nM | > 500 nM | – | CC(=O)c1nn(CC2CC2)c2c1Cc1cn(C)nc1-c1ccc(F)cc1[C@@H](C)Oc1cc-2cnc1N [Example 16, 1-[(19R)-22-amino-3-(cyclopropylmethyl)-16-fluoro-10,19-dimethyl-20-oxa-3.4.10,11,23-pentaazapentacyclo[19.3.1.0^2,6.0^8,12.0^13,18]pentacosa-1(24),2(6),4,8,11.13,15,17,21(25),22-decaen-5-yl]ethan-1-one] | C (bin C for moderate selectivity, ratio≥1 but<10) | – | –
< 50 nM | ≥ 500 nM | 0.1 to 50 nM | > 500 nM | – | C[C@H]1Oc2cc(cnc2N)-c2c(CC3CC3)nc(C(=O)N(C)C)n2Cc2cn(C)nc2-c2ccc(F)cc21 [Example 41, N,N-dimethyl-(R)-22-amino-3-(cyclopropylmethyl)-16-fluoro-10-methyl-19-methyl-20-oxa-4,6,10,11,23-pentaazapentacyclo[19.3.1.0^2,6.0^8,12.0^13,18]pentacosa-1(24),2,4,8,11,13,15,17,21(25),22-decaene-5-carboxamide] | A (bin A for very high selectivity, ratio≥30-fold) | – | –
50 to 500 nM | – | 50 to 500 nM | > 500 nM | – | CCn1nc(C(=O)N(C)C)c2c1-c1cnc(N)c(c1)O[C@H](C)c1cc(F)ccc1-c1ncccc1C2=O [Example 47, N,N-dimethyl-(R)-23-amino-3-ethyl-17-fluoro-20-methyl-7-oxo-21-oxa-3,4,12,24-tetraazapentacyclo[20.3.1.0^2,^6.0^8,^13.0^14,^19]hexacosa-1(25),2(6),4,8(13),9,11,14,16,18,22(26),23-undecaene-5-carboxamide] | – | BB (bin BB for the selectivity with the ratio≥10-fold but<30) | –
– | 50 to 500 nM | 0.1 to 50 nM | > 500 nM | – | C[C@H]1Oc2cc(cnc2N)-c2c(c(C(N)=O)nn2CC2CC2)Cc2cccnc2-c2ccc(F)cc21 [Example 6, (R)-23-amino-3-(cyclopropylmethyl)-17-fluoro-20-methyl-21-oxa-3,4,12,24-tetraazapentacyclo[20.3.1.0^2,^6.0^8,^13.0^14,^19]hexacosa-1(25),2(6),4,8(13),9,11,14,16, 18,22(26),23-undecaene-5-carboxamide] | – | – | –
– | 50 to 500 nM | 0.1 to 50 nM | > 500 nM | 0.1 to 50 nM | CCN(C)C(=O)c1nn(CC2CC2)c2c1Cc1cn(C)nc1-c1ccc(F)cc1[C@@H](C)Oc1cc-2cnc1N [Example 38, N-ethyl-N-methyl-(R)-22-amino-3-(cyclopropylmethyl)-16-fluoro-10-methyl-19-methyl-20-oxa-3,4,10,11,23-pentaazapentacyclo[19.3.1.0^2,^6.0^8,^12.0^13,^18]pentacosa-1(24),2(6),4,8,11,13,15,17,21(25),22-decaene-5-carboxamide] | – | – | –
– | 50 to 500 nM | 0.1 to 50 nM | > 500 nM | – | Cc1cc2n(n1)-c1c(F)cc(F)cc1[C@@H](C)Oc1cc(cnc1N)-c1c(c(C(=O)N(C)C)nn1CC1CC1)C2 [Example 44, N,N-dimethyl-(R)-22-amino-3-(cyclopropylmethyl)-14,16-difluoro-10,19-dimethyl-20-oxa-3,4,11,12,23-pentaazapentacyclo[19.3.1.0^2,^6.0^8,^12.0^13,^18]pentacosa-1(24),2(6),4,8, 10,13,15,17,21(25),22-decaene-5-carboxamide] | – | – | –
< 50 nM | – | 50 to 500 nM | > 500 nM | > 500 nM | CCn1ncc2c1-c1cnc(N)c(c1)O[C@H](C)c1cc(F)ccc1-c1ncccc1C2=O [Example 76, (R)-23-amino-3-ethyl-17-fluoro-20-methyl-21-oxa-3,4,12,24-tetraazapentacyclo[20.3.1.0^2,^6.0^8,^13.0^14,^19]hexacosa-1(25),2(6),4,8(13),9,11,14,16,18,22(26),23-undecaen-7-one] | C (bin C for moderate selectivity, ratio≥1 but<10) | DD (bin DD for the selectivity with the ratio≥1 but<5) | C (bin C for moderate selectivity, ratio≥1 but<10)
– | – | 50 to 500 nM | 50 to 500 nM | > 500 nM | CCn1ncc2c1-c1cnc(N)c(c1)O[C@H](C)c1cc(F)ccc1-c1nn(C)cc1C2=O [Example 15, (R)-22-amino-3-ethyl-16-fluoro-10-methyl-19-methyl-20-oxa-3,4,10,11,23-pentaazapentacyclo[19.3.1.0^2,^6.0^8,^12.0^13,^18]pentacosa-1(24),2(6),4,8,11,13,15,17,21(25),22-decaen-7-one] | C (bin C for moderate selectivity, ratio≥1 but<10) | DD (bin DD for the selectivity with the ratio≥1 but<5) | D (bin D for low selectivity, ratio<1)
– | – | 50 to 500 nM | > 500 nM | 50 to 500 nM | C[C@H]1Oc2cc(cnc2N)-c2c(C#N)nn(C(=O)N(C)C)c2Cc2cccnc2-c2c(F)cc(F)cc21 [Example 71, N,N-dimethyl-(R)-23-amino-3-cyano-15,17-difluoro-20-methyl-21-oxa-4,5,12,24-tetraazapentacyclo[20.3.1.0^2,^6.0^8,^13.0^14,^19]hexacosa-1(25),2(6),3,8(13),9,11,14,16,18,22(26),23-undecaene-5-carboxamide] | B (bin B for high selectivity, ratio≥10-fold but<30) | – | B (bin B for high selectivity, ratio≥10-fold but<30)
– | – | 0.1 to 50 nM | > 500 nM | 50 to 500 nM | C[C@H]1Oc2cc(cnc2N)-c2c(nn(C)c2C#N)C(=O)c2cn(C)nc2-c2c(F)cc(F)cc21 [Example 26, (R)-22-amino-14,16-difluoro-4,10-dimethyl-19-methyl-7-oxo-20-oxa-4,5,10,11,23-pentaazapentacyclo[19.3.1.0^2,^6.0^8,^12.0^13,^18]pentacosa-1(24),2,5,8,11,13,15,17,21(25),22-decaene-3-carbonitrile] | A (bin A for very high selectivity, ratio≥30-fold) | AA (bin AA for the selectivity with the ratio≥30-fold) | A (bin A for very high selectivity, ratio≥30-fold)
